Test results: patent US20250188088A1, “COMPOUND AND USE THEREOF” (ONQUALITY PHARMACEUTICALS CHINA LTD., priority 2022, published 2025)

Assays:
[1] = test system: rash caused by small molecule EGFR inhibitors; assay: Treatment of rash caused by small molecule EGFR inhibitors, topical ointment, rat model; type: in vivo, SD rats
Experimental: An Experiment to Verify the Treatment of Rash Caused by Small Molecule EGFR Inhibitors with Topical Administration of Compounds of the Present Application on a Rat Animal Model After the SD rats were fed and adapted for one week (about 200 g), the rats were divided into 10 rats per group. The hair on the back of rats was gently removed with an electric razor one day before the experiment, and then an intragastric administration test was carried out. EGFR inhibitors were dissolved in a sterile aqueous solution, and diluted with PBS buffer; the amount of each gavage was not more than 2 mL, and the dosage was shown in Table 3. […] The experiments were divided into the administration group with the compound of the present application and the control group. During the treatment experiment, EGFR inhibitors were intragastrically administered continuously every day. After the gavage, the administration group applied the compound ointment of the present application on the back (about 3 cm*3 cm) of rats, and the control group applied blank matrix ointment on the back (about 3 cm*3 cm); after application, the rats were fixed with a fixed cyclinder for about 4 hours, and then the rats were released, with the residual drug at the application site wiped off with clean water, and put back into the cage. The frequency of intragastric administration of EGFR inhibitors is shown in Table 3, but the compounds of the present application and blank ointment are applied only once a day. […] Table 3 lists the animal experiment combinations of various small molecule EGFR inhibitors and the compound ointment of the present application, as well as the corresponding experiment results (wherein, the value in the control rate column=the number of rats whose rash is milder in the administration group than that in the control group/the total number of rats in the administration group×100%).

[2] = test system: skin contact delayed-type hypersensitivity; assay: Skin contact delayed-type hypersensitivity (DNFB) response test, ear swelling, topical ointment; type: in vivo; details: topical to ears, DNFB DTH, Balb/c mice, compared to blank ointment
From the text: Therapeutic Effect of Topical Administration of Compounds of the Present Application in Skin Contact Delayed-Type Hypersensitivity Response Test in Mice Delayed-type hypersensitivity (DTH) response in mouse skin is considered to be an effective model for clinical contact dermatitis and other T cell-mediated cutaneous immune diseases, such as atopic dermatitis and psoriasis. The DTH in mice shares the common features with these cutaneous immune diseases, including immunoinfiltration with an increase of inflammatory cytokines and hyperproliferation of keratinocytes. Balb/c mice were sensitized by topical administration of the antigen 2,4-dinitrofluorobenzene (DNFB) to the shaved back of mice on Days 0 and 1. On Day 5, the thickness of the ears was measured using an engineering micrometer. The measurement result was recorded and used as a baseline. The animals were then challenged with a total of 20 μL of DNFB (10 μL for the internal pinna and 10 μL for the external pinna) topically dosed to both ears at a concentration of 0.2%. The ears were measured again 24-72 hours after challenge. The compound ointment of the present application was applied topically to the ears of the animals throughout the allergic and challenge periods (Days −1˜7) or before or throughout the challenge period (generally Days 4˜7). The therapeutic effect was expressed by a reduction in ear swelling compared to that of the blank ointment. The compound causing a reduction of 20% or more was considered effective. Table 5 lists the skin contact delayed-type hypersensitivity experiment results in mice treated with the compound of the present application.

[3] = test system: rash caused by monoclonal EGFR inhibitors; assay: Treatment of rash caused by monoclonal EGFR inhibitors, topical ointment, rat model; type: in vivo; details: SD rats
Experimental: An Experiment to Verify the Treatment of Rash Caused by Monoclonal EGFR Inhibitors with Topical Administration of Compounds of the Present Application on a Rat Animal Model After the SD rats were fed and adapted for one week (about 200 g), the rats were divided into 10 rats per group. The hair on the back of rats was gently removed with an electric razor one day before the experiment, and then an administration test was carried out. The EGFR monoclonal antibody solution diluted with normal saline was injected via tail vein twice a week, and the injection rate and time were shown in Table 4; the treatment experiment was started at the time point when rats developed a rash after continuous administration for 1-2 weeks. The experiments were divided into the administration group with the compound of the present application and the control group. During the treatment experiment, monoclonal antibody EGFR inhibitors were injected twice a week. the administration group applied the compound ointment of the present application on the back (about 3 cm*3 cm) of rats every day, and the control group applied blank matrix ointment on the back (about 3 cm*3 cm); after application, the rats were fixed with a fixed cyclinder for about 4 hours, and then the rats were released, with the residual drug at the application site wiped off with clean water, and put back into the cage. […] Table 4 lists the animal experiment combinations of monoclonal antibody EGFR inhibitors and the compound ointment of the present application, as well as the corresponding experiment results (wherein, the value in the control rate column=the number of rats whose rash is milder in the administration group than that in the control group/the total number of rats in the administration group×100%).

[4] = Afatinib 40 mg/kg once a day, 6 dosing modelling days, ointment 5.0 wt% once a day
[5] = EAI045 80 mg/kg once a day, 8 dosing modelling days, ointment 5.0 wt% once a day
[6] = Osimertinib 60 mg/kg twice a day, 7 dosing modelling days, ointment 1.0 wt% once a day
[7] = Osimertinib 60 mg/kg twice a day, 7 dosing modelling days, ointment 10.0 wt% once a day

For C[C@@H]1CN(C(=O)CC#N)[C@@]12CCN(c1ncnc3c1ccn3C(=O)N(C)CCOC(=O)c1ccn[nH]1)C2 [Compound A31], the “Control Rate” value ([1]; Afatinib 40 mg/kg once a day, 6 dosing modelling days, ointment 0.1 wt% once a day) was 10%, the “Control Rate” value ([1]; Afatinib 40 mg/kg once a day, 6 dosing modelling days, ointment 1.0 wt% once a day) was 60% and the “Control Rate” value ([1]; Afatinib 40 mg/kg once a day, 6 dosing modelling days, ointment 3.0 wt% once a day) was 70%. For the same compound, the “Control Rate” value [1, 4] was 90%, the “Control Rate” value ([1]; Afatinib 40 mg/kg once a day, 6 dosing modelling days, ointment 10.0 wt% once a day) was 90% and the “Control Rate” value ([1]; EAI045 80 mg/kg once a day, 8 dosing modelling days, ointment 0.1 wt% once a day) was 20%. For the same compound, the “Control Rate” value [1, 5] was 70%, the “Control Rate” value ([1]; EAI045 80 mg/kg once a day, 8 dosing modelling days, ointment 10.0 wt% once a day) was 90% and the “Control Rate” value ([1]; Gefitinib 80 mg/kg twice a day, 10 dosing modelling days, ointment 0.3 wt% once a day) was 20%. For the same compound, the “Control Rate” value ([1]; Gefitinib 80 mg/kg twice a day, 10 dosing modelling days, ointment 3.0 wt% once a day) was 40%, the “Control Rate” value ([1]; Gefitinib 80 mg/kg twice a day, 10 dosing modelling days, ointment 10.0 wt% once a day) was 90% and the “Control Rate” value ([1]; Osimertinib 60 mg/kg twice a day, 7 dosing modelling days, ointment 0.5 wt% once a day) was 40%. For the same compound, the “Control Rate” value [1, 6] was 60%, the “Control Rate” value ([1]; Osimertinib 60 mg/kg twice a day, 7 dosing modelling days, ointment 5.0 wt% once a day) was 70% and the “Reduction Rate of Ear Swelling” value ([2]; ointment 1.0 wt%) was 16%. For the same compound, the “Reduction Rate of Ear Swelling” value ([2]; ointment 5.0 wt%) was 28%.
C=CC(=O)N1C[C@@H](Nc2ncnc3c2ccn3C(=O)N(C)CCOC(=O)C2CC2)CC[C@H]1C [Compound A33] was tested, and the “Control Rate” value ([1]; EAI045 80 mg/kg once a day, 8 dosing modelling days, ointment 1.0 wt% once a day) was 30%, the “Control Rate” value [1, 5] was 60% and the “Control Rate” value ([1]; Osimertinib 60 mg/kg twice a day, 7 dosing modelling days, ointment 3.0 wt% once a day) was 30%. For the same compound, the “Control Rate” value [1, 7] was 70%, the “Control Rate” value ([3]; Cetuximab 100 mg/kg twice a week via tail vein, ointment 0.1 wt%, 10 days of drug application) was 20% and the “Control Rate” value ([3]; Cetuximab 100 mg/kg twice a week via tail vein, ointment 1.0 wt%, 10 days of drug application) was 50%. For the same compound, the “Control Rate” value ([3]; Cetuximab 100 mg/kg twice a week via tail vein, ointment 5.0 wt%, 10 days of drug application) was 80%, the “Control Rate” value ([3]; Cetuximab 100 mg/kg twice a week via tail vein, ointment 10.0 wt%, 10 days of drug application) was 100% and the “Control Rate” value ([3]; Panitumumab 6 mg/kg twice a week via tail vein, ointment 0.1 wt%, 8 days of drug application) was 30%. The “Control Rate” value ([3]; Panitumumab 6 mg/kg twice a week via tail vein, ointment 1.0 wt%, 8 days of drug application) was 70%, the “Control Rate” value ([3]; Panitumumab 6 mg/kg twice a week via tail vein, ointment 5.0 wt%, 8 days of drug application) was 70% and the “Control Rate” value ([3]; Panitumumab 6 mg/kg twice a week via tail vein, ointment 10.0 wt%, 8 days of drug application) was 100%. The “Reduction Rate of Ear Swelling” value ([2]; ointment 1.0 wt%) was 22% and the “Reduction Rate of Ear Swelling” value ([2]; ointment 5.0 wt%) was 32%.
With CN(CCOC(=O)C1CCCCC1)C(=O)n1ccc2c(-c3cnn(C4(CC#N)CN(C5CCN(C(=O)c6ccnc(C(F)(F)F)c6F)CC5)C4)c3)ncnc21 [Compound A36] the “Control Rate” value ([1]; Afatinib 40 mg/kg once a day, 6 dosing modelling days, ointment 0.5 wt% once a day) was 20%, the “Control Rate” value [1, 4] was 60% and the “Control Rate” value ([1]; BPI-7711 60 mg/kg once a day, 6 dosing modelling days, ointment 5.0 wt% once a day) was 30%. The “Control Rate” value ([1]; EAI045 80 mg/kg once a day, 8 dosing modelling days, ointment 0.5 wt% once a day) was 20%, the “Control Rate” value [1, 5] was 40% and the “Control Rate” value ([1]; Larotinib 20 mg/kg once a day, 6 dosing modelling days, ointment 5.0 wt% once a day) was 60%. For the same compound, the “Control Rate” value [1, 6] was 30%, the “Control Rate” value [1, 7] was 50% and the “Reduction Rate of Ear Swelling” value ([2]; ointment 1.0 wt%) was 29%. For the same compound, the “Reduction Rate of Ear Swelling” value ([2]; ointment 5.0 wt%) was 34%.
